What all share (type): functional
Common to all, as to settings: time 16-20 hrs

Assay [1] relates to Escherichia coli. The assay can be described thus: Antibacterial activity against Escherichia coli ATCC 25922 incubated for 16 to 20 hrs by broth microdilution method.
The test system of assay [2] is Cronobacter sakazakii. The assay can be described thus: Antibacterial activity against Cronobacter sakazakii ATCC 29544 incubated for 16 to 20 hrs by broth microdilution method. (In general: Broth dilution looks for growth in wells or tubes with falling amounts of substance.)
Assay [3] deals with Klebsiella pneumoniae. The assay can be described thus: Antibacterial activity against Klebsiella pneumoniae ATCC 13883 incubated for 16 to 20 hrs by broth microdilution method.
Assay [4] deals with Staphylococcus aureus. The assay can be described thus: Antibacterial activity against Staphylococcus aureus ATCC 25923 incubated for 16 to 20 hrs by broth microdilution method.

Values after ≈ are worked out from the molar mass of the structure shown.

For the compound `CC[C@H]1OC(=O)C[C@@H](O)[C@H](C)[C@@H](O[C@@H]2O[C@H](C)[C@@H](O)[C@H](N(C)C)[C@H]2O)[C@@H](CCN(Cc2cn(-c3cnc4ccccc4c3)nn2)Cc2ccco2)C[C@@H](C)C(=O)/C=C/C(C)=C/[C@@H]1CN1CCCCC1`, the MIC (as a rule, the lowest concentration found to suppress growth) was determined as 8 µg/mL (≈ 8.38 µM) in assay [1], 32 µg/mL (≈ 33.5 µM) in assay [2], 32 µg/mL (≈ 33.5 µM) in assay [3] and 0.25 µg/mL (≈ 0.262 µM) in assay [4].

Consider `CC[C@H]1OC(=O)C[C@@H](O)[C@H](C)[C@@H](O[C@@H]2O[C@H](C)[C@@H](O)[C@H](N(C)C)[C@H]2O)[C@@H](CCN(Cc2cncnc2)Cc2cn(-c3cnc4ccccc4c3)nn2)C[C@@H](C)C(=O)/C=C/C(C)=C/[C@@H]1CO`, for which the MIC in assay [1] amounted to 32 µg/mL (≈ 35.6 µM); in assay [2], 32 µg/mL (≈ 35.6 µM); in assay [3] it was 32 µg/mL (≈ 35.6 µM); in assay [4] it was 0.5 µg/mL (≈ 0.556 µM).

Take `CC[C@H]1OC(=O)C[C@@H](O)[C@H](C)[C@@H](O[C@@H]2O[C@H](C)[C@@H](O)[C@H](N(C)C)[C@H]2O)[C@@H](CCN(Cc2cn(-c3cnc4ccccc4c3)nn2)Cc2cccs2)C[C@@H](C)C(=O)/C=C/C(C)=C/[C@@H]1CO`: the MIC in assay [1] was 16 µg/mL (≈ 17.7 µM); in assay [2], 32 µg/mL (≈ 35.4 µM); in assay [3] it was 16 µg/mL (≈ 17.7 µM); in assay [4], 0.125 µg/mL (≈ 0.138 µM).

As for `CC[C@H]1OC(=O)C[C@@H](O)[C@H](C)[C@@H](O[C@@H]2O[C@H](C)[C@@H](O)[C@H](N(C)C)[C@H]2O)[C@@H](CCN(C)Cc2cn(-c3cnc4ccccc4c3)nn2)C[C@@H](C)C(=O)/C=C/C(C)=C/[C@@H]1CI`, the MIC in assay [1] worked out at 16 µg/mL (≈ 17.2 µM); in assay [2], 32 µg/mL (≈ 34.4 µM); in assay [3] it was 32 µg/mL (≈ 34.4 µM); in assay [4] it was 2 µg/mL (≈ 2.15 µM).

`CC[C@H]1OC(=O)C[C@@H](O)[C@H](C)[C@@H](O[C@@H]2O[C@H](C)[C@@H](O)[C@H](N(C)C)[C@H]2O)[C@@H](CCN(Cc2ccc(N(C)C)cc2)Cc2cn(-c3cnc4ccccc4c3)nn2)C[C@@H](C)C(=O)/C=C/C(C)=C/[C@@H]1CN(CC)CC`: the MIC worked out at 4 µg/mL (≈ 4.02 µM) in assay [1], 16 µg/mL (≈ 16.1 µM) in assay [2], 8 µg/mL (≈ 8.04 µM) in assay [3] and 0.5 µg/mL (≈ 0.502 µM) in assay [4].

In the case of `CC[C@H]1OC(=O)C[C@@H](O)[C@H](C)[C@@H](O[C@@H]2O[C@H](C)[C@@H](O)[C@H](N(C)C)[C@H]2O)[C@@H](CCN(Cc2cn(-c3cnc4ccccc4c3)nn2)Cc2ccco2)C[C@@H](C)C(=O)/C=C/C(C)=C/[C@@H]1CI`, the MIC was determined as 32 µg/mL (≈ 32.1 µM) in assay [1], 16 µg/mL (≈ 16 µM) in assay [2], 16 µg/mL (≈ 16 µM) in assay [3] and 2 µg/mL (≈ 2.01 µM) in assay [4].

As for `CC[C@H]1OC(=O)C[C@@H](O)[C@H](C)[C@@H](O[C@@H]2O[C@H](C)[C@@H](O)[C@H](N(C)C)[C@H]2O)[C@@H](CCN(Cc2ccccc2)Cc2cn(-c3cnc4ccccc4c3)nn2)C[C@@H](C)C(=O)/C=C/C(C)=C/[C@@H]1CN1CC(C)CC(C)C1` (stereo partly drawn), the MIC is 16 µg/mL (≈ 16.1 µM) in assay [1], 16 µg/mL (≈ 16.1 µM) in assay [2], 16 µg/mL (≈ 16.1 µM) in assay [3] and 4 µg/mL (≈ 4.03 µM) in assay [4].

For the compound `CC[C@H]1OC(=O)C[C@@H](O)[C@H](C)[C@@H](O[C@@H]2O[C@H](C)[C@@H](O)[C@H](N(C)C)[C@H]2O)[C@@H](CCN(Cc2cn(-c3cnc4ccccc4c3)nn2)Cc2ccco2)C[C@@H](C)C(=O)/C=C/C(C)=C/[C@@H]1CN1CCCCCC1`, the minimal inhibitory concentration (MIC) is 4 µg/mL (≈ 4.13 µM) in assay [1], 8 µg/mL (≈ 8.26 µM) in assay [2], 4 µg/mL (≈ 4.13 µM) in assay [3] and 1 µg/mL (≈ 1.03 µM) in assay [4].

Consider `CC[C@H]1OC(=O)C[C@@H](O)[C@H](C)[C@@H](O[C@@H]2O[C@H](C)[C@@H](O)[C@H](N(C)C)[C@H]2O)[C@@H](CCN(Cc2ccc(N(C)C)cc2)Cc2cn(-c3cnc4ccccc4c3)nn2)C[C@@H](C)C(=O)/C=C/C(C)=C/[C@@H]1CO`, for which the MIC came out at 8 µg/mL (≈ 8.51 µM) in assay [1], 16 µg/mL (≈ 17 µM) in assay [2], 16 µg/mL (≈ 17 µM) in assay [3] and 0.25 µg/mL (≈ 0.266 µM) in assay [4].

`CC[C@H]1OC(=O)C[C@@H](O)[C@H](C)[C@@H](O[C@@H]2O[C@H](C)[C@@H](O)[C@H](N(C)C)[C@H]2O)[C@@H](CCN(Cc2cn(-c3cnc4ccccc4c3)nn2)Cc2ccco2)C[C@@H](C)C(=O)/C=C/C(C)=C/[C@@H]1CN(CC)CC`: the MIC came out at 4 µg/mL (≈ 4.25 µM) in assay [1], 8 µg/mL (≈ 8.49 µM) in assay [2], 16 µg/mL (≈ 17 µM) in assay [3] and 1 µg/mL (≈ 1.06 µM) in assay [4].

On to `CC[C@H]1OC(=O)C[C@@H](O)[C@H](C)[C@@H](O[C@@H]2O[C@H](C)[C@@H](O)[C@H](N(C)C)[C@H]2O)[C@@H](CCN(Cc2ccc([N+](=O)[O-])cc2)Cc2cn(-c3cnc4ccccc4c3)nn2)C[C@@H](C)C(=O)/C=C/C(C)=C/[C@@H]1CO`, for which the minimum inhibitory concentration (MIC) in assay [1] stood at 32 µg/mL (≈ 34 µM); in assay [2] it was 32 µg/mL (≈ 34 µM); in assay [3], 32 µg/mL (≈ 34 µM); in assay [4], 0.25 µg/mL (≈ 0.265 µM).

Consider `CC[C@H]1OC(=O)C[C@@H](O)[C@H](C)[C@@H](O[C@@H]2O[C@H](C)[C@@H](O)[C@H](N(C)C)[C@H]2O)[C@@H](CCN(Cc2ccc(C(F)(F)F)cc2)Cc2cn(-c3cnc4ccccc4c3)nn2)C[C@@H](C)C(=O)/C=C/C(C)=C/[C@@H]1CN1CCCCC1`, for which the minimal inhibitory concentration (MIC) in assay [1] is 8 µg/mL (≈ 7.75 µM); in assay [2], 16 µg/mL (≈ 15.5 µM); in assay [3] it was 16 µg/mL (≈ 15.5 µM); in assay [4], 1 µg/mL (≈ 0.969 µM).

As to `CC[C@H]1OC(=O)C[C@@H](O)[C@H](C)[C@@H](O[C@@H]2O[C@H](C)[C@@H](O)[C@H](N(C)C)[C@H]2O)[C@@H](CCN(Cc2ccc(OC)cc2)Cc2cn(-c3cnc4ccccc4c3)nn2)C[C@@H](C)C(=O)/C=C/C(C)=C/[C@@H]1CI`, the minimum inhibitory concentration (MIC) in assay [1] was 16 µg/mL (≈ 15.4 µM); in assay [2], 32 µg/mL (≈ 30.9 µM); in assay [3] it was 32 µg/mL (≈ 30.9 µM); in assay [4], 2 µg/mL (≈ 1.93 µM).

Consider `CC[C@H]1OC(=O)C[C@@H](O)[C@H](C)[C@@H](O[C@@H]2O[C@H](C)[C@@H](O)[C@H](N(C)C)[C@H]2O)[C@@H](CCN(Cc2ccc(N(C)C)cc2)Cc2cn(-c3cnc4ccccc4c3)nn2)C[C@@H](C)C(=O)/C=C/C(C)=C/[C@@H]1CN1CCCCCC1`, for which the minimal inhibitory concentration (MIC) stood at 4 µg/mL (≈ 3.92 µM) in assay [1], 8 µg/mL (≈ 7.83 µM) in assay [2], 4 µg/mL (≈ 3.92 µM) in assay [3] and 1 µg/mL (≈ 0.979 µM) in assay [4].

Take `CC[C@H]1OC(=O)C[C@@H](O)[C@H](C)[C@@H](O[C@@H]2O[C@H](C)[C@@H](O)[C@H](N(C)C)[C@H]2O)[C@@H](CCN(Cc2ccc(C(F)(F)F)cc2)Cc2cn(-c3cnc4ccccc4c3)nn2)C[C@@H](C)C(=O)/C=C/C(C)=C/[C@@H]1CN1CCCCCC1`: the MIC came out at 4 µg/mL (≈ 3.82 µM) in assay [1], 8 µg/mL (≈ 7.65 µM) in assay [2], 4 µg/mL (≈ 3.82 µM) in assay [3] and 1 µg/mL (≈ 0.956 µM) in assay [4].

In the case of `CC[C@H]1OC(=O)C[C@@H](O)[C@H](C)[C@@H](O[C@@H]2O[C@H](C)[C@@H](O)[C@H](N(C)C)[C@H]2O)[C@@H](CCN(Cc2ccccc2)Cc2cn(-c3cnc4ccccc4c3)nn2)C[C@@H](C)C(=O)/C=C/C(C)=C/[C@@H]1CN(CC)CC`, the minimal inhibitory concentration (MIC) in assay [1] is 8 µg/mL (≈ 8.4 µM); in assay [2], 8 µg/mL (≈ 8.4 µM); in assay [3] it was 8 µg/mL (≈ 8.4 µM); in assay [4] it was 0.25 µg/mL (≈ 0.263 µM).

As to `CC[C@H]1OC(=O)C[C@@H](O)[C@H](C)[C@@H](O[C@@H]2O[C@H](C)[C@@H](O)[C@H](N(C)C)[C@H]2O)[C@@H](CCN(Cc2ccc(NC(C)=O)cc2)Cc2cn(-c3cnc4ccccc4c3)nn2)C[C@@H](C)C(=O)/C=C/C(C)=C/[C@@H]1CO`, the MIC in assay [1] was 32 µg/mL (≈ 33.5 µM); in assay [2], 32 µg/mL (≈ 33.5 µM); in assay [3] it was 32 µg/mL (≈ 33.5 µM); in assay [4], 2 µg/mL (≈ 2.1 µM).

Values taken from ChEMBL document CHEMBL5126592, “Design, synthesis and activity against drug-resistant bacteria evaluation of C-20, C-23 modified 5-O-mycaminosyltylonolide derivatives” (Eur J Med Chem, 2022).
